Measured values as given in PubChem BioAssay (NCI).
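In this assay, cells in 96-well plates receive the compound at five concentrations for 48 hours. Endpoints are linearly interpolated between the surrounding concentrations. GI50 = concentration required for 50% inhibition of growth. TGI is the concentration that stops growth completely.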

What was measured:
Assay in all cases: NCI tumour cell line growth inhibition, 48 h
[1] = tested on: HCT-116 colon
[2] = tested on: COLO 205 colon
[3] = tested on: HS 578T breast
[4] = tested on: K-562 leukemia
[5] = tested on: SR leukemia
[6] = tested on: BT-549 breast
[7] = tested on: SK-MEL-28 melanoma
[8] = tested on: 786-0 renal

SMILES | GI50 [1] | TGI [1] | GI50 [2] | TGI [2] | GI50 [3] | TGI [3] | GI50 [4] | TGI [4] | GI50 [5] | TGI [5] | GI50 [6] | TGI [6] | GI50 [7] | TGI [7] | GI50 [8] | TGI [8]
Cc1nc(-c2ccccc2)n2nc(NCCCN3CCOCC3)ncc12 | 19.4 µM | > 25 µM | 19.1 µM | > 25 µM | 12.2 µM | > 25 µM | > 25 µM | > 25 µM | > 25 µM | > 25 µM | > 25 µM | > 25 µM | > 25 µM | > 25 µM | > 25 µM | > 25 µM
CC(=O)Oc1ccc(C23c4ccccc4C2(OC(C)=O)c2cc(OC(C)=O)ccc23)cc1 (stereo not given) | 3.56 µM | 12.7 µM | 14.5 µM | 29.1 µM | 2.93 µM | > 100 µM | 4.04 µM | > 100 µM | 3.14 µM | 24.2 µM | 2.76 µM | 6.49 µM | 31.6 µM | > 100 µM | 6.56 µM | 20.5 µM
COc1ccc(NC(=O)CSC2=C(Nc3cccc(Br)c3)C(=O)N(Cc3ccccc3)C2=O)cc1Cl | 32.8 µM | > 100 µM | > 100 µM | > 100 µM | 35.4 µM | > 100 µM | 4.41 µM | > 100 µM | 3.02 µM | 24.3 µM | 51.6 µM | > 100 µM | > 100 µM | > 100 µM | > 100 µM | > 100 µM
S=c1snc2n1CCN2 | 22.6 µM | > 100 µM | 25.2 µM | > 100 µM | > 100 µM | > 100 µM | > 100 µM | > 100 µM |  |  | > 100 µM | > 100 µM | 64.4 µM | > 100 µM | 91.7 µM | > 100 µM
CN(CCCCCl)P(=O)(OCCS(=O)(=O)CC(NC(=O)CCC(N)C(=O)O)C(=O)NC(C(=O)O)c1ccccc1)OCC1OC(n2ccc(N)nc2=O)C(F)(F)C1O (stereo not given) | 0.0378 µM | > 100 µM | 0.912 µM | > 100 µM | > 60.4 µM | > 100 µM | 1.58 µM | > 100 µM | 0.303 µM | 11 µM | 0.783 µM | > 100 µM | 5.06 µM | > 100 µM | 0.02 µM | 
CC(=O)c1ccc2c(c1)C1C=CCC1[C@H](c1cc3c(cc1Br)OCO3)N2 (stereo not given in full) | 1.18 µM | 14.3 µM | 1.94 µM | 5.71 µM | 0.713 µM | 2.19 µM | 0.794 µM |  | 0.519 µM | 6.15 µM | 0.716 µM | 13.8 µM | 0.626 µM | 6.56 µM | 1.53 µM | 15.3 µM
NS(=O)(=O)c1ccc(-n2nc3c(c2-c2ccc(Cl)cc2)Cc2ccccc2-3)cc1 | 4.06 µM | 21.3 µM | 22.8 µM | 64.1 µM | 12.1 µM | 33 µM | 4.98 µM | 17.2 µM | 5.82 µM | 21.3 µM |  |  | 18.3 µM | 35 µM | 14.6 µM | 30.7 µM
C=CCn1c(C)nc2ccc(Nc3nc(Nc4ccc(F)cc4)nc4ccccc34)cc21 | 2.41 µM | 7.67 µM |  |  | 9.83 µM | 56.7 µM | 3.13 µM | 11.9 µM | 2.26 µM | 5.93 µM | 3.35 µM | 18.1 µM | 1.65 µM | 3.13 µM | 7.44 µM | 23.8 µM
COc1ccc(-c2ccncc2)cc1C(N)=O | > 25 µM | > 25 µM | > 25 µM | > 25 µM | > 25 µM | > 25 µM | > 25 µM | > 25 µM | > 25 µM | > 25 µM | > 25 µM | > 25 µM | > 25 µM | > 25 µM | > 25 µM | > 25 µM
CCC(O)c1ccc(Br)cc1NC(=O)c1cccc(Cl)c1 (stereo not given) | 14.2 µM | 46.6 µM | 18.8 µM | 34.6 µM | 24.6 µM | > 100 µM | 15.6 µM | > 100 µM | 24 µM | 70.5 µM | 23.7 µM | 74.3 µM | 23.9 µM | 64.8 µM | 33.1 µM | > 100 µM
O=S(=O)(NC1=NCCN1C(=S)SN1CCn2c1nsc2=S)c1cccc2ccccc12 | 14.8 µM | 37.2 µM | 26.8 µM | > 100 µM | 25.5 µM | > 100 µM | 16.1 µM | 44.6 µM | 10.2 µM | 45.6 µM |  |  | 58.6 µM | > 100 µM | 23.9 µM | 72.6 µM
COC(=O)C1C(O)CCC2CN3CCc4c([nH]c5ccccc45)C3CC21 (stereo not given) |  | > 100 µM |  | > 100 µM |  | > 100 µM |  | > 100 µM |  |  |  | > 100 µM |  | > 100 µM |  | > 100 µM
CC[n+]1oc(C(=O)c2ccc(Cl)cc2)c(-c2ccccc2)c1-c1ccccc1.[Cl][Fe]([Cl])([Cl])[Cl] |  |  | 50.7 µM | > 100 µM | 34.5 µM | > 100 µM | > 100 µM | > 100 µM | 33 µM | > 100 µM |  |  | 38 µM | > 100 µM | 91.8 µM | > 100 µM
COC(=O)c1cc2c3ccccc3n3c(=O)c4cc5ccc(N(S(=O)(=O)c6ccc(C)cc6)S(=O)(=O)c6ccc(C)cc6)cc5nc4c(n1)c23 |  |  | > 100 µM | > 100 µM | 29.3 µM | > 100 µM | 39.4 µM | > 100 µM |  |  | 35.7 µM | > 100 µM | > 100 µM | > 100 µM | 13.6 µM | 43.9 µM
O=C(O)c1ccc(NCn2nc(-c3ccccc3O)oc2=S)cc1 | 23.7 µM | 57.3 µM | 48.8 µM | > 100 µM | > 100 µM | > 100 µM | 40.7 µM | > 100 µM |  |  | 59.6 µM | > 100 µM | > 100 µM | > 100 µM | 39.7 µM | > 100 µM
CC[C@H](Nc1ncnc2nc[nH]c12)c1nc2cccc(F)c2c(=O)n1-c1ccccc1 | 39.4 µM | > 100 µM | 72.8 µM | > 100 µM | 4.12 µM | > 88.3 µM | 30.2 µM | > 100 µM |  |  | 4.64 µM | > 100 µM | 13.7 µM | > 100 µM | 4.29 µM | > 100 µM
